Measured values taken from patent publication US12150998B2, “Bicyclic peptide ligands specific for P-selectin” (BicycleTx Limited, priority 2021, dated 2024).
Where two headings read alike, the source gives them in different places. Starred links: 1 amine or outer side, 2 acyl side, 3 side chain; linkers in the order of their positions; H or OH if unused. Positions of bridges follow the written chain, without caps; N, C: chain ends. Residues, ends and D or L forms follow the SMILES beside them. Chains are numbered I, II in the order given. X2 = O=C(CCCC(=O)NCCOCCOCCOCCOCCOCCOCCOCCOCCOCCOCCOCCOCCOCCOCCOCCOCCOCCOCCOCCOCCOCCOCCOCCn1cc(CCC(=O)[*:2])nn1)NCCOCCOCCOCCOCCOCCOCCOCCOCCOCCOCCOCCOCCOCCOCCOCCOCCOCCOCCOCCOCCOCCOCCOCCn1cc(CCC(=O)[*:1])nn1; X1 = O=C(C[*:1])N1CCN(C(=O)C[*:2])CCN(C(=O)C[*:3])CC1

Assays:
[1] = biological target: T1, human P-Selectin protein (Homo sapiens, UniProt P16109); test: SPR binding assay (Biacore); conditions: Affinity KD determined by SPR, recombinant biotinylated human P-Selectin, 25° C.
T1 sequence (P16109 42-830): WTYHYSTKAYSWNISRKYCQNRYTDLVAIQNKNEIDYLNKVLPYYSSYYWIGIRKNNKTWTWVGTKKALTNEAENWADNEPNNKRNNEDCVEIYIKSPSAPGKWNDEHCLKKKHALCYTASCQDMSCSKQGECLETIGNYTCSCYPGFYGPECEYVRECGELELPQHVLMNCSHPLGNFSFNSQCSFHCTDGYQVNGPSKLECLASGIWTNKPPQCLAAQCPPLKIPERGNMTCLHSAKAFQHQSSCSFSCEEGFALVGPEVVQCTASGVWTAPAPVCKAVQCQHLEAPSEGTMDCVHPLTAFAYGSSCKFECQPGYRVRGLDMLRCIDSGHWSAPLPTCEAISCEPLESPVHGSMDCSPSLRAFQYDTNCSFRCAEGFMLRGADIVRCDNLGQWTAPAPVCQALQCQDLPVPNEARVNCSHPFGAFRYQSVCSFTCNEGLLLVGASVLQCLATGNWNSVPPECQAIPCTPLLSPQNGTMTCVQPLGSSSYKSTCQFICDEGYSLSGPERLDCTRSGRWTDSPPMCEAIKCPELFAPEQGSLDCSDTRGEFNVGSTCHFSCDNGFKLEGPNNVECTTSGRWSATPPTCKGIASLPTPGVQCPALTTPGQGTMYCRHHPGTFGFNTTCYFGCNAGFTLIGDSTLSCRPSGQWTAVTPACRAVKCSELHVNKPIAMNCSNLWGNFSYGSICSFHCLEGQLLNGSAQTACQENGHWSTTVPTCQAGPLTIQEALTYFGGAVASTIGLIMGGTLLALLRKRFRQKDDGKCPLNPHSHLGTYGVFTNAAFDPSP
How it was run: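 Biotinylated recombinant human P-Selectin was captured on a streptavidin chip (1000-1500 RU), and monomeric peptides were injected in PBS/0.05% Tween 20 with 0.5% DMSO at 25 °C (top 200 nM–50 μM, 2- or 3-fold series). Double-referenced data were fitted to a kinetic model with mass transport to give ka, kd and KD.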

[2] = biological target: T2, P-Selectin:PSGL1 interaction (Homo sapiens, UniProt P16109); test: Receptor ligand inhibition assay (P-Selectin binding to HL-60 cells); type: cell-based; conditions: for Inhibition at top concentration: 100−% response at top concentration
T2 construct: host or cells: HL-60 cells (ATCC, CCL-240) supply the PSGL-1 partner endogenously
T2 sequence (P16109 42-771 limits assumed): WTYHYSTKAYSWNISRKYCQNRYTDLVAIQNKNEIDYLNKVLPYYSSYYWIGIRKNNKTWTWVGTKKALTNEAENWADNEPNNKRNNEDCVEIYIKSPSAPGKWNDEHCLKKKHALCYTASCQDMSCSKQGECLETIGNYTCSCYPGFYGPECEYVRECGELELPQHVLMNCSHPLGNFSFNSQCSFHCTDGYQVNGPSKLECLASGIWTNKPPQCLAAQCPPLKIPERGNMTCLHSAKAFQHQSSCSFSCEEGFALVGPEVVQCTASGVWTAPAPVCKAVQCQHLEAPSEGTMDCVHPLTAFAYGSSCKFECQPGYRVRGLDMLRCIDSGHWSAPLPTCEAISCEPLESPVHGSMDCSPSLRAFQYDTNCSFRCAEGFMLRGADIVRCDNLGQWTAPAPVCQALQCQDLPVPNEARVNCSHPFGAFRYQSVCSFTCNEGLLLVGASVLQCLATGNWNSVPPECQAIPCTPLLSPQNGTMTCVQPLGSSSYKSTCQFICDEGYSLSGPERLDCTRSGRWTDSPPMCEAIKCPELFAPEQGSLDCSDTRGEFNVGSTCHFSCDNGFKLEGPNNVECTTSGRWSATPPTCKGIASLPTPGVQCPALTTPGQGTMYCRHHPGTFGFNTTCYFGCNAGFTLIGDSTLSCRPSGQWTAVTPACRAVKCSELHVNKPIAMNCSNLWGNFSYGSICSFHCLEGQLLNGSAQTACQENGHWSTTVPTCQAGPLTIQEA
Experimental: Bicycle test samples, SelG1 (Crizanlizumab) were serially diluted maintaining 0.5% DMSO in assay buffer (25 mM HEPES, 121 mM NaCl, 5.4 mM KCl, 0.8 mM MgCl2, 1.8 mM CaCl2), 6 mM […], 5.5 mM glucose, 1% BSA, pH7.4) and transferred to 384 well clear bottom plates (Corning, 3712) with a final volume of 6 μL. […], of P-Selectin in imaging buffer (25 mM HEPES, 121 mM NaCl, 5.4 mM KCl, 0.8 mM MgCl2, 1.8 mM CaCl2), 6 mM […], 5.5 mM glucose, pH7.4) was added to give a 5 nM final concentration and incubated at room temperature for 15 minutes. HL-60 cells (ATCC, CCL-240) mixed with 1 μg/mL far red labelled wheat germ agglutinin (WGA, ThermoFisher W21404) and 1 μg/mL AlexaFluor 488-streptavidin (Invitrogen S11223) were added to the plate and incubated for 2 hours at room temperature in the absence of light. Staining and antibody binding were quantified by simultaneously scanning the microplates with 488 nm and 640 nm lasers on a mirrorball microplate cytometer, AF488 on FL2 triggering on AF647-WGA on FL4. Data was analysed in Dotmatics, using a four parameter logistic fit to generate IC50 values and % response. Percent inhibition was calculated using 100−% response at top concentration.

| Structure (SMILES) | Kd [1] [nM] | IC50 [2] [nM] | Inhibition at top concentration ([2]; geomean of n=3) [%] | IC50 ([2]; 5 nM P-Selectin, HL-60 cells, geomean of n=3, read-out: IC50) [nM] |
| --- | --- | --- | --- | --- |
| CC(C)C[C@@H]1NC(=O)[C@H](CO)NC(=O)[C@@H]2CCCN2C(=O)[C@H](C(C)C)NC(=O)[C@H](CC(=O)O)NC(=O)[C@@H]2CSCC(=O)N3CCN(CCN(CC3)C(=O)CSC[C@@H](C(=O)N[C@@H](C)C(=O)N[C@@H](CCCCNC(=O)CCc3cn(CCOCCOCCOCCOCCOCCOCCOCCOCCOCCOCCOCCOCCOCCOCCOCCOCCOCCOCCOCCOCCOCCOCCOCCNC(=O)CCOCC(COCCC(=O)NCCOCCOCCOCCOCCOCCOCCOCCOCCOCCOCCOCCOCCOCCOCCOCCOCCOCCOCCOCCOCCOCCOCCOCCn4cc(CCC(=O)NCCCC[C@H](NC(=O)[C@H](C)NC(=O)[C@@H]5CSCC(=O)N6CCN7CCN(CC6)C(=O)CSC[C@H](NC(=O)[C@H](Cc6c[nH]c8ccccc68)NC(=O)[C@H](CC(=O)O)NC(=O)[C@H](C)NC(=O)[C@H](CC(=O)O)NC(=O)[C@@H](NC(=O)[C@H](C)N)CSCC7=O)C(=O)N[C@@H](CC(=O)O)C(=O)N[C@@H](C(C)C)C(=O)N6CCC[C@H]6C(=O)N[C@@H](CO)C(=O)N[C@@H](CC(C)C)C(=O)N6CCC[C@H]6C(=O)N5)C(N)=O)nn4)(COCCC(=O)NCCOCCOCCOCCOCCOCCOCCOCCOCCOCCOCCOCCOCCOCCOCCOCCOCCOCCOCCOCCOCCOCCOCCOCCn4cc(CCC(=O)NCCCC[C@H](NC(=O)[C@H](C)NC(=O)[C@@H]5CSCC(=O)N6CCN7CCN(CC6)C(=O)CSC[C@H](NC(=O)[C@H](Cc6c[nH]c8ccccc68)NC(=O)[C@H](CC(=O)O)NC(=O)[C@H](C)NC(=O)[C@H](CC(=O)O)NC(=O)[C@@H](NC(=O)[C@H](C)N)CSCC7=O)C(=O)N[C@@H](CC(=O)O)C(=O)N[C@@H](C(C)C)C(=O)N6CCC[C@H]6C(=O)N[C@@H](CO)C(=O)N[C@@H](CC(C)C)C(=O)N6CCC[C@H]6C(=O)N5)C(N)=O)nn4)COCCC(=O)NCCOCCOCCOCCOCCOCCOCCOCCOCCOCCOCCOCCOCCOCCOCCOCCOCCOCCOCCOCCOCCOCCOCCOCCn4cc(CCC(=O)NCCCC[C@H](NC(=O)[C@H](C)NC(=O)[C@@H]5CSCC(=O)N6CCN7CCN(CC6)C(=O)CSC[C@H](NC(=O)[C@H](Cc6c[nH]c8ccccc68)NC(=O)[C@H](CC(=O)O)NC(=O)[C@H](C)NC(=O)[C@H](CC(=O)O)NC(=O)[C@@H](NC(=O)[C@H](C)N)CSCC7=O)C(=O)N[C@@H](CC(=O)O)C(=O)N[C@@H](C(C)C)C(=O)N6CCC[C@H]6C(=O)N[C@@H](CO)C(=O)N[C@@H](CC(C)C)C(=O)N6CCC[C@H]6C(=O)N5)C(N)=O)nn4)nn3)C(N)=O)NC(=O)[C@@H]3CCCN3C1=O)C(=O)CSC[C@H](NC(=O)[C@H](C)N)C(=O)N[C@@H](CC(=O)O)C(=O)N[C@@H](C)C(=O)N[C@@H](CC(=O)O)C(=O)N[C@@H](Cc1c[nH]c3ccccc13)C(=O)N2 [BCY12261] | 0.019 | 10.4 | 68 |  |
| CC(C)C[C@@H]1NC(=O)[C@H](CO)NC(=O)[C@@H]2CCCN2C(=O)[C@H](C(C)C)NC(=O)[C@H](CC(=O)O)NC(=O)[C@@H]2CSCC(=O)N3CCN(CCN(CC3)C(=O)CSC[C@@H](C(=O)N[C@@H](C)C(=O)N[C@@H](CCCCNC(=O)CCc3cn(CCOCCOCCOCCOCCOCCOCCOCCOCCOCCOCCOCCOCCOCCOCCOCCOCCOCCOCCOCCOCCOCCOCCOCCNC(=O)CCCC(=O)NCCOCCOCCOCCOCCOCCOCCOCCOCCOCCOCCOCCOCCOCCOCCOCCOCCOCCOCCOCCOCCOCCOCCOCCn4cc(CCC(=O)NCCCC[C@H](NC(=O)[C@H](C)NC(=O)[C@@H]5CSCC(=O)N6CCN7CCN(CC6)C(=O)CSC[C@H](NC(=O)[C@H](Cc6c[nH]c8ccccc68)NC(=O)[C@H](CC(=O)O)NC(=O)[C@H](C)NC(=O)[C@H](CC(=O)O)NC(=O)[C@@H](NC(=O)[C@H](C)N)CSCC7=O)C(=O)N[C@@H](CC(=O)O)C(=O)N[C@@H](C(C)C)C(=O)N6CCC[C@H]6C(=O)N[C@@H](CO)C(=O)N[C@@H](CC(C)C)C(=O)N6CCC[C@H]6C(=O)N5)C(N)=O)nn4)nn3)C(N)=O)NC(=O)[C@@H]3CCCN3C1=O)C(=O)CSC[C@H](NC(=O)[C@H](C)N)C(=O)N[C@@H](CC(=O)O)C(=O)N[C@@H](C)C(=O)N[C@@H](CC(=O)O)C(=O)N[C@@H](Cc1c[nH]c3ccccc13)C(=O)N2 [BCY12257] (I: H-ACDADWCDVPSLPCAK-NH2 / II: H-ACDADWCDVPSLPCAK-NH2; linker I:2-I:7-I:14, II:2-II:7-II:14 via X1; linker I:16-II:16 via X2) | 11.6 |  | 54 | > 78.4 |
